Results taken from patent US20120022116A1, “COMPOSITIONS AND METHODS FOR THE TREATMENT OF PATHOLOGICAL CONDITION(S) RELATED TO GPR35 AND/OR GPR35-HERG COMPLEX” (priority 2010, published 2012).
“Also recorded” adds a separate entry of the source. Where two headings read alike, the source gives them in different places.

What was measured:
[1] = system: HEK293 cells expressing only Gqo5 or GPR35; assay: Ca2+ mobilization assay in HEK293 cells expressing only Gqo5 or only GPR35; format: cell-based, human; conditions: engineered HEK293, 10 μM
Protocol: (§1) Ca^2+ flux assay with transient transfected cells were carried out in 96-well plates (Corning Inc, Cat#3664). HEK293 cells (25000 cells/well) were seeded on day 1. Cells were transfected with either myc-GPR35 or HA-Gqo5 or co-transfected with both plasmids (myc-GPR35/HA-Gqo5 DNA ratio 2:1) using Lipofectamine LTX (Invitrogen) on day 2. Ca^2+ flux assay was performed 24 hours after transfection.
as §1, with “assays” for “assay”, “assays were” for “assay was”

GPR35 [2] = assay: DMR desensitization / antagonism mode against GPR35 agonist-induced DMR in HT29 cells; format: cell-based, human; conditions: for Desenstization to GPR35 agonist: HT29 cells pretreated with compound, then GPR35 agonist
HT29 cells [3] = assay: Fluo-4 Ca2+ mobilization assay in native HT29 cells; format: cell-based, human; conditions: Fluo-4 assay, 10 micromolar
Protocol: (§2) Fluo-4 Direct™ Calcium Assay Kit was purchased from Invitrogen (Starter pack, Cat. no. F10471). HEK293 cells (15000 cells/well) and HT29 cells (30000 cells/well) were seeded in polyD-lysine coated 384well plates (Corning Inc., Cat#3845), culture overnight at 37° C. The next day, Ca^2+ flux assay was performed following manufacturer's instruction and fluorescence ratio (340 nm/380 nm) was measured on FDSS (Functional Drug Screening System, Hamamatsu Photonics, Japan). Compounds were prepared as 10× stock (final concentration 10 μM) in the Ca^2+ assay buffer.
as §2, with “384 well” for “384well”, “Cat#3845) and cultured” for “Cat#3845), culture”, “day, the” for “day,”

HT29 cells [4] = assay: cAMP-Glo assay in HT29 cells; format: cell-based, human; conditions: for increase in intracellular cAMP concentration: HT29 cells, Gs readout; for suppression in intracellular cAMP concentration: forskolin co-stimulated HT29 cells, Gi readout
Protocol: (§3) Cells were plated in 384well plates (BD Bioscience, Cat#354660) (10000 cells/well for HEK293, 20000 cells/well for HT29). Cells were cultured in complete growth medium overnight. The next day cAMP-Glo assay was performed according to manufacturer's instruction (Promega, Cat#V1502). Cells were incubated with 20 μM compounds in induction buffer with or without 0.5 μM or 5 μM forskolin for 30 minutes before adding lysis buffer. Luminescence was measured using Tecan SafireII reader.
as §3, with “384 well” for “384well”, “Cat# 354660)” for “Cat#354660)”, “Cat#V 1502).” for “Cat#V1502).”
as §3, with “in 384 well” for “in 384well”, “Bioscience, Cat# 354660)” for “Bioscience, Cat#354660)”, “HT29). The cells” for “HT29). Cells”, “day a” for “day”, “Cat#V1502). The cells” for “Cat#V1502). Cells”

hERG channel [5] = target: T1, hERG channel (Homo sapiens, UniProt Q12809); assay: Automated patch clamp recording of hERG tail current (IonWorks); conditions: hERG tail current ratio post/pre-compound, 50 uM
T1 sequence (Q12809 whole entry): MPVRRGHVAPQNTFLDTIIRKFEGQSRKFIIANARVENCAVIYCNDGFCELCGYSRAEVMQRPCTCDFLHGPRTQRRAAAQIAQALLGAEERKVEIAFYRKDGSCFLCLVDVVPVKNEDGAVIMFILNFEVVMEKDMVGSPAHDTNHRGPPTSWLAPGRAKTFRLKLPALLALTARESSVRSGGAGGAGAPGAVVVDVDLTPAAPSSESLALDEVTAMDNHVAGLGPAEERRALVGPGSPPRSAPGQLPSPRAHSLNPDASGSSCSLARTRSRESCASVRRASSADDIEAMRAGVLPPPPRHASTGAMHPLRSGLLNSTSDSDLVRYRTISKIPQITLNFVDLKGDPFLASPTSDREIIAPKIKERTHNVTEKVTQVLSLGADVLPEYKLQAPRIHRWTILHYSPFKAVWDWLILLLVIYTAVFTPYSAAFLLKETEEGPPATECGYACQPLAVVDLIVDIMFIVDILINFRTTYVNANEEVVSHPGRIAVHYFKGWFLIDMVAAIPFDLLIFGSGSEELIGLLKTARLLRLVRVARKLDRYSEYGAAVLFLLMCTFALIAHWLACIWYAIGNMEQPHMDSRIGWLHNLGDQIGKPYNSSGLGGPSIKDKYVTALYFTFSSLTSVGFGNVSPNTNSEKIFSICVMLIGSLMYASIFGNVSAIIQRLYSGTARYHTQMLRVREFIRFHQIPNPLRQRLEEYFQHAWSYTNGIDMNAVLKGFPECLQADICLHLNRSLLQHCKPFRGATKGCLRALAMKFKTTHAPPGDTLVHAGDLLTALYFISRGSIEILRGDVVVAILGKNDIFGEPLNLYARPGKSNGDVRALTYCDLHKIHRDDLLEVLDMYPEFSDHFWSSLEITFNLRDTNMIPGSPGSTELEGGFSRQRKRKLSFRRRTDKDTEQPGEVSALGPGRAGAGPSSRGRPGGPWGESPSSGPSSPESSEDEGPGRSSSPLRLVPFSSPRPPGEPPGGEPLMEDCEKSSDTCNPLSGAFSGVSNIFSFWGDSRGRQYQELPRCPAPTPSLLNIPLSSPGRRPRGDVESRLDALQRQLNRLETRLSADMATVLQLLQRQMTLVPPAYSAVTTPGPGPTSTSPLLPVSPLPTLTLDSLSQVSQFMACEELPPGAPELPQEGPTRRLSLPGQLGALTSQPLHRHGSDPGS

GPR35 [6] = assay: GPR35 receptor internalization, immunofluorescence confocal imaging in HT29 cells; format: cell-based, human; conditions: anti-GPR35 antibody
Protocol: HT29 cells were plated on a 8-well chamber slide (10,000 cells/well) and incubated at 37° C. for 24 hrs. Next day, cells were fixed with 4% formaldehyde in 1×PBS for 15 min, followed by blocking and permeabilization in a buffer that contains 4% goat serum, 0.1% BSA, 0.1% Triton X100 in 1×PBS for 2 hrs. After 5 min wash with PBS, fixed cells were incubated with primary antibody anti-GPR35 (Abcam) (1:300) in 3% BSA/PBS buffer for 24 hrs, followed by incubation with secondary antibody Alexa Fluor® 488 goat anti-rabbit IgG (H+L) (Invitrogen) (1:250) in 3% BSA/PBS for 1 hr at room temperature. Cells were finally washed once with PBS and sealed with 1.5 mm thick glass cover-slip. Dried slides were stored at 4° C. until imaging. Confocal imaging was performed with Zeiss confocal microscope Axiovert 40. […] Confocal images were analyzed using MacBiophotonics Image J software (http://www.macbiophotonics.ca/downloads.htm).
HT29 cells were plated on a 8-well chamber slide (10,000 cells/well) and incubated at 37° C. for 24 hrs. […] Confocal images were analyzed using MacBiophotonics Image J software (http://www.macbiophotonics.ca/downloads.htm).
HT29 cells were plated on a 8-well chamber slide (10,000 cells/well) and incubated at 37° C. for 24 hrs. […] Confocal images were analyzed using MacBiophotonics Image J software (http://www.macbiophotonics.ca/downloads.htm). […]

GPR35 [7] = target: T2, GPR35 (Homo sapiens, UniProt Q9HC97); assay: Ca2+ mobilization assay (Fluo-4) in HEK-GPR35-Gqo5 cells; format: cell-based; conditions: for Ca2+ moblization (HEK-GPR35-Gqo5): HEK293 cells co-expressing GPR35 and Gqo5, Fluo-4, compounds 10 μM; for Ca2+ mobilization signal in cells co-expressing GPR35 and Gqo5: engineered HEK293, 10 μM
T2 construct: myc; expressed in transfected cells; host or cells: HEK293, transient co-transfection (Lipofectamine LTX)
T2 sequence (Q9HC97 whole entry): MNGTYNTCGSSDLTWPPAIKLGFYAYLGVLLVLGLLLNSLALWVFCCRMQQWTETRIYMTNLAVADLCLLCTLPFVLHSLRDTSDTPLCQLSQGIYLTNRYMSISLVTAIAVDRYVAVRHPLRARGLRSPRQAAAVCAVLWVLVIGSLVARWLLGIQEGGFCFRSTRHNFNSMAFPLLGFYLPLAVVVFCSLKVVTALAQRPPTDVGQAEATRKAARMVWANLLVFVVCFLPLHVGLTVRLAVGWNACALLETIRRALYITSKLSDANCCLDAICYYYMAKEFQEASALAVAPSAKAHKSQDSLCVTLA

hERG channel [8] = target: T1, hERG channel
hERG channel [9] = system: hERG channel
hERG channel [10] = assay: Cross-desensitization DMR assay against hERG activator mallotoxin-induced DMR in HT29 cells
hERG channel [11] = target: T1, hERG channel; design: expressed in transfected cells; conditions: 10 μM; cited from earlier work
HEK-293 cells = assay: DMR assay in parental HEK-293 cells; format: cell-based, human; conditions: zaprinast 10 μM
HEK-hERG cells [12] = assay: DMR assay in HEK-hERG cells; conditions: zaprinast 10 μM
HEK-hERG cells [13] = system: HEK-hERG cells
[14] = listed as 6-bromo-3-methylthieno[3,2-b]thiophene-2-carboxylic acid

| SMILES | Ca2+ mobilization signal in cells expressing only Gqo5 or GPR35 [1] | Desenstization to GPR35 agonist (GPR35 [2]) | desensitization / attenuation of the GPR35 agonist (zaprinast, NPPB) DMR signal in HT29 cells (GPR35 [2]; pretreatment, zaprinast 400 nM) | increase in intracellular cAMP concentration (HT29 cells [4]) | suppression in intracellular cAMP concentration (HT29 cells [4]) | Electrophysiology (HEK-hERG) (hERG channel [5]) | Ca2+ moblization (HEK-GPR35-Gqo5) (GPR35 [7]) | Ca2+ mobilization signal in cells co-expressing GPR35 and Gqo5 (GPR35 [7]) | Desenstization to hERG activator (hERG channel [9]) | DMR signal in HEK-293 cells (HEK-293 cells) | also measured |
| --- | --- | --- | --- | --- | --- | --- | --- | --- | --- | --- | --- |
| Cc1c(C(=O)O)sc2c(Br)csc12 [Compound 13, 3-methyl-6-bromo-thieno[3,2-b]thiophene-2-carboxylic acid] | failed to cause any obvious Ca^2+ mobilization signal | desenstized | caused desensitization | neither zaprinast nor 6-bromo-3-methylthieno[3,2-b]thiophene-2-carboxylic acid was able to cause increase in intracellular cAMP concentration | neither zaprinast nor 6-bromo-3-methylthieno[3,2-b]thiophene-2-carboxylic acid cause any suppression in intracellular cAMP concentration | activator | inactive | triggered quite obvious Ca^2+ signal |  |  | Ca2+ mobilization signal in HT29 cells (HT29 cells [3]; [14]): unable to cause any detectable Ca^2+ signal; GPR35 receptor internalization (GPR35 [6]; [14]): underwent internalization; also recorded: caused receptor internalization |
| O=[N+]([O-])c1cc2nc(O)c(O)nc2cc1[N+](=O)[O-] [DNQX] |  | desenstized |  |  |  |  | active | active | partially desenstized |  | Electrophysiology (HEK-hERG) (hERG channel [8]): inactive |
| CC(=O)c1c(O)c(C)c(O)c(Cc2c(O)c3c(c(C(=O)/C=C/c4ccccc4)c2O)OC(C)(C)C=C3)c1O [Mallotoxin, mallotoxin] |  | desenstized |  |  |  | activator |  |  |  | no detectable DMR signal (i.e., net-zero DMR) | desensitization / attenuation of the GPR35 agonist (zaprinast, NPPB) DMR signal in HT29 cells (GPR35 [2]): dose-dependently, partially inhibited; also recorded: partially attenuate; also recorded: dose-dependently desensitized; Desenstization to hERG activator (hERG channel [10]; HT29 cells pretreated with compound, then hERG activator mallotoxin): desenstized; shift of the half maximal activation voltage (V1/2) to the hyperpolarizing direction (hERG channel [11]): more than 25 mV |
| Cc1cccc(Nc2ccccc2C(=O)O)c1C [Mefenamic Acid] |  | desenstized |  |  |  |  | inactive |  | partially desenstized |  |  |
| CCCOc1ccccc1-c1nc2nn[nH]c2c(=O)[nH]1 [zaprinast] | failed to cause any obvious Ca^2+ mobilization signal; also recorded: not in either parental cell, or the engineered cells expressing either GPR35 or Gqo5 | desenstized | dose-dependently caused desensitization | neither zaprinast nor 6-bromo-3-methylthieno[3,2-b]thiophene-2-carboxylic acid was able to cause increase in intracellular cAMP concentration | neither zaprinast nor 6-bromo-3-methylthieno[3,2-b]thiophene-2-carboxylic acid cause any suppression in intracellular cAMP concentration | inactive | active | triggered quite obvious Ca^2+ signal; also recorded: triggered a detectable Ca^2+ mobilization signal; also recorded: active |  | net-zero DMR signal | DMR signal in HEK-hERG cells (HEK-hERG cells [12]): net-zero DMR signal; impact on the mallotoxin DMR signal in HEK-hERG cells (HEK-hERG cells [13]): little or no impact; Ca2+ mobilization signal in HT29 cells (HT29 cells [3]): failed to cause any significant Ca^2+ mobilization; also recorded: unable to cause any detectable Ca^2+ signal; also recorded: did not result in any detectable Ca^2+ mobilization signal; Ca2+ mobilization signal in HT29 cells (HT29 cells [3]; listed as Zaprinast): did not result in any detectable Ca^2+ mobilization signal; attenuation of the mallotoxin DMR signal in HT29 cells (hERG channel [10]; pretreatment, mallotoxin 16 micromolar): dose-dependently, partially attenuated; also recorded: partially attenuate; also recorded: dose-dependently desensitized; GPR35 receptor internalization (GPR35 [6]): underwent internalization; also recorded: caused receptor internalization; also recorded: significant receptor internalization |
